According to patent US12351588B2, “Salt forms and solvates of Mcl-1 antagonists” (AMGEN INC., priority 2022, dated 2025):
Where a name gives a salt, the structure may show the parent alone.

Key:
[1] = Solubility of AMG 176 Form 1 in water under neutral conditions; assay type: physicochemical
[2] = Moisture sorption (DVS, VTI vapor sorption analyzer); assay type: physicochemical; settings: for weight gain (moisture sorption profile): by 95% relative humidity, 25° C.
Method: Moisture Sorption: Moisture sorption data was collected at 25° C. using a VTI vapor sorption analyzer. A sample size of approximately 4-10 mg was used in a standard platinum pan. Hygroscopicity was evaluated from 5 to 95% RH in increments of 5% RH. Data for adsorption and desorption cycles were collected. Equilibrium criteria were set at 0.001% weight change in 10 minute with a maximum equilibration time of 180 minutes.

| solubility [1] [µg/mL] | weight gain (moisture sorption profile) [2] | fate of the sorbed weight gain upon desorption ([2]; desorption after sorption to 95% relative humidity) | Compound |
| --- | --- | --- | --- |
| < 0.1 |  |  | CO[C@H]1/C=C/C[C@H](C)[C@@H](C)S(=O)(=O)NC(=O)c2ccc3c(c2)N(C[C@@H]2CC[C@H]21)C[C@@]1(CCCc2cc(Cl)ccc21)CO3 [AMG 176 Form 1] |
|  | about 1.2% |  | CO[C@H]1/C=C/C[C@H](C)[C@@H](C)S(=O)(=O)NC(=O)c2ccc3c(c2)N(C[C@@H]2CC[C@H]21)C[C@@]1(CCCc2cc(Cl)ccc21)CO3 [crystalline ammonium salt form of AMG 176] |
|  | about 5% | lost upon desorption | CO[C@H]1/C=C/C[C@H](C)[C@@H](C)S(=O)(=O)NC(=O)c2ccc3c(c2)N(C[C@@H]2CC[C@H]21)C[C@@]1(CCCc2cc(Cl)ccc21)CO3 [crystalline potassium salt hydrate form of AMG 176] |
